Measurements taken from US20130303575A1, “ADMINISTRATION OF AN INHIBITOR OF HDAC” (priority 2007, published 2013).
Entries after “also recorded” stand apart in the source; their conditions may differ. Marks after values point to notes of the source that are not given here.

Assays:
[1] = Tolerability, DLT and MTD in patients with refractory solid tumors or lymphoma (Example 1); assay type: in vivo
Description: Tolerability was assessed by scheduled clinical assessments. Adverse events (AEs) were assessed using the National Cancer Institute Common Toxicity Criteria (CTC) version 2.0. […] MTD was defined as the highest dose at which no more than 1 of 6 patients experienced DLT during the first treatment cycle.

[2] = Safety, DLT, MTD and adverse events in patients with advanced solid tumors or lymphoma (Example 2); assay type: in vivo
Source text: DLT was defined as first course adverse events […] hematologic toxicity. The MTD was defined as one dose level below the dose at which […] of six patients experienced DLT.
Dose reduction by one level was applied for the occurrence of either grade 3 nonhematologic toxicity, grade 4 hematologic toxicity, persistent (≦2 weeks) grade 2 nonhematologic toxicity, or per the investigator's assessment. […] No limitation for the number of dose reductions was chosen.
At study entry, history, physical examination, laboratory studies (CBC, electrolytes, creatinine, blood urea nitrogen, total and direct bilirubin, ALT, AST, alkaline phosphatase, uric acid, prothrombin time, partial thromboplastin time, and urinalysis), computed tomography scan and chest x-ray and ECG were performed. Clinical assessments, including a physical examination and adverse event evaluation, were conducted at each follow-up. Adverse events were graded by the NCI Common Toxicity Criteria (version 2.0). Computed tomography scans and staging was performed every 6 weeks for the q14-day schedule. Disease-specific staging techniques, such as bone marrow aspirate and biopsy, flow cytometry, cutaneous lesion photography, or bone scan were used as indicated. Response evaluations used the Response Evaluation Criteria in Solid Tumors and the Cheson criteria for lymphoma. Multiple-gated acquisition (MUGA) scans were obtained on the q14-day schedule at base line, before course 2 and at each restaging. Laboratory studies (CBC with differential, chemistry 20, prothrombin time and […] thromboplastin time) were performed on days 1, 3, 5, 7 and repeated weakly.

Structure (SMILES): Nc1ccccc1NC(=O)c1ccc(CNC(=O)OCc2cccnc2)cc1 [SNDX-275, N-(2-aminophenyl) 4-[N-(pyrid-3-yl)methyloxycarbonylaminomethyl]benzamide]
- maximum tolerated dose (MTD) ([1]; Schedule A, 2-6 mg/m^2 biweekly): not reached
- drug-related grade 4 adverse events ([1]; human, in vivo): No drug-related grade 4 (gr4) adverse events (AEs) were reported
- DLTs ([2]; Every 14 days, 2 mg/m^2): 0
- No. of Patients With First Course DLT ([2]; Every 14 days, 2 mg/m^2): 0
- DLTs ([2]; Every 14 days, 4 mg/m^2): 0
- No. of Patients With First Course DLT ([2]; Every 14 days, 4 mg/m^2): 0
- No. of Patients With First Course DLT ([2]; Every 14 days, 6 mg/m^2): 1
- DLTs ([2]; Every 14 days, 6 mg/m^2, anorexia, nausea, and vomiting): 3†
- DLTs ([2]; Every 14 days, 8 mg/m^2): 0
- No. of Patients With First Course DLT ([2]; Every 14 days, 8 mg/m^2): 0
- No. of Patients With First Course DLT ([2]; Every 14 days, 10 mg/m^2): 1
- DLTs ([2]; Every 14 days, 10 mg/m^2, anorexia, nausea, and vomiting): 3†
- No. of Patients With First Course DLT ([2]; Every 14 days, 12 mg/m^2): 2
- DLTs ([2]; Every 14 days, 12 mg/m^2, anorexia, nausea, vomiting, and fatigue): 7‡
- No. of Patients With First Course DLT ([2]; Every day x 28/42 days, 2 mg/m^2, 2 patients): 2
- MTD ([2]; daily schedule (once-a-day×28 every 6 weeks), first dose level 2 mg/m^2): exceeded at the first dose level
- Abdominal pain: % (All Grades) ([2]; human, in vivo): 7%
- Anemia: No. of Patients (All Grades) ([2]; human, in vivo): 8
- Anorexia: % (All Grades) ([2]; human, in vivo): 36%
- Anorexia: Grade 3 ([2]; human, in vivo): 4
- Anorexia: No. of Patients (All Grades) ([2]; human, in vivo): 10
- Bilirutin: % (All Grades) ([2]; human, in vivo): 14%
- Bilirutin: No. of Patients (All Grades) ([2]; human, in vivo): 4
- Chest pain: % (All Grades) ([2]; human, in vivo): 7%
- Chest pain: No. of Patients (All Grades) ([2]; human, in vivo): 2
- Constipation: % (All Grades) ([2]; human, in vivo): 7%
- Constipation: No. of Patients (All Grades) ([2]; human, in vivo): 2
- Hypermagnesemia: No. of Patients (All Grades) ([2]; human, in vivo): 2
- Hypoalbuminemia: % (All Grades) ([2]; human, in vivo): 64%
- Hypoalbuminemia: No. of Patients (All Grades) ([2]; human, in vivo): 18
- Hypocalcemia: % (All Grades) ([2]; human, in vivo): 21%
- Hypocalcemia: No. of Patients (All Grades) ([2]; human, in vivo): 6
- Hypokalemia: % (All Grades) ([2]; human, in vivo): 4%
- Hypokalemia: No. of Patients (All Grades) ([2]; human, in vivo): 1
- Hyponatremia: % (All Grades) ([2]; human, in vivo): 25%
- Hyponatremia: No. of Patients (All Grades) ([2]; human, in vivo): 7
- Infection w/o neutropenia: % (All Grades) ([2]; human, in vivo): 7%
- Infection w/o neutropenia: Grade 3 ([2]; human, in vivo): 0
- Infection w/o neutropenia: No. of Patients (All Grades) ([2]; human, in vivo): 2
- Leucopenia: % (All Grades) ([2]; human, in vivo): 21%
- Leucopenia: No. of Patients (All Grades) ([2]; human, in vivo): 6
- Libido: % (All Grades) ([2]; human, in vivo): 4%
- Libido: Grade 3 ([2]; human, in vivo): 0
- Libido: No. of Patients (All Grades) ([2]; human, in vivo): 1
- Myalgia: Grade 3 ([2]; human, in vivo): 0
- Myalgia: No. of Patients (All Grades) ([2]; human, in vivo): 1
- Nail changes: % (All Grades) ([2]; human, in vivo): 4%
- Nail changes: Grade 3 ([2]; human, in vivo): 0
- Nail changes: No. of Patients (All Grades) ([2]; human, in vivo): 1
- Nausea: % (All Grades) ([2]; human, in vivo): 64%
- Nausea: Grade 3 ([2]; human, in vivo): 4
- Nausea: No. of Patients (All Grades) ([2]; human, in vivo): 18
- Neurosensory deficits: % (All Grades) ([2]; human, in vivo): 7%
- Neurosensory deficits: No. of Patients (All Grades) ([2]; human, in vivo): 2
- Sinus Tachycardia: No. of Patients (All Grades) ([2]; human, in vivo): 1
- Stomatitis: % (All Grades) ([2]; human, in vivo): 4%
- Stomatitis: No. of Patients (All Grades) ([2]; human, in vivo): 1
- Sweating: % (All Grades) ([2]; human, in vivo): 4%
- Sweating: Grade 3 ([2]; human, in vivo): 0
- Sweating: No. of Patients (All Grades) ([2]; human, in vivo): 1
- Taste disturbance: % (All Grades) ([2]; human, in vivo): 29%
- Taste disturbance: Grade 3 ([2]; human, in vivo): 0
- Taste disturbance: No. of Patients (All Grades) ([2]; human, in vivo): 8
- tolerability ([2]; human, in vivo, po): intolerable
- MTD (and recommended phase II dose) ([2]; q14-day schedule): 10 mg/m^2
- SNDX-275-related first course grade 4 adverse events ([2]; q14-day schedule): no SNDX-275-related first course grade 4 adverse events
- dose-limiting toxicities ([2]; q14-day schedule): nausea, vomiting, anorexia and fatigue; also recorded: anorexia, nausea, vomiting and fatigue
- tolerability ([2]; q14-day schedule): reasonably well-tolerated
- Abdominal pain: No. of Patients (All Grades) ([2]; q14-day schedule, first course): 2
- Alkaline phosphatase: % (All Grades) ([2]; q14-day schedule, first course): 4%
- Alkaline phosphatase: No. of Patients (All Grades) ([2]; q14-day schedule, first course): 1
- Allergic reaction: % (All Grades) ([2]; q14-day schedule, first course): 4%
- Allergic reaction: Grade 3 ([2]; q14-day schedule, first course): 0
- Allergic reaction: No. of Patients (All Grades) ([2]; q14-day schedule, first course): 1
- Anemia: % (All Grades) ([2]; q14-day schedule, first course): 29%
- Cough: % (All Grades) ([2]; q14-day schedule, first course): 4%
- Cough: No. of Patients (All Grades) ([2]; q14-day schedule, first course): 1
- Creatinine: % (All Grades) ([2]; q14-day schedule, first course): 7%
- Creatinine: No. of Patients (All Grades) ([2]; q14-day schedule, first course): 2
- Dehydration: % (All Grades) ([2]; q14-day schedule, first course): 11%
- Dehydration: Grade 3 ([2]; q14-day schedule, first course): 0
- Dehydration: No. of Patients (All Grades) ([2]; q14-day schedule, first course): 3
- Depression: % (All Grades) ([2]; q14-day schedule, first course): 4%
- Depression: Grade 3 ([2]; q14-day schedule, first course): 0
- Depression: No. of Patients (All Grades) ([2]; q14-day schedule, first course): 1
- Diarrhea: % (All Grades) ([2]; q14-day schedule, first course): 7%
- Diarrhea: No. of Patients (All Grades) ([2]; q14-day schedule, first course): 2
- Dyspepsia: % (All Grades) ([2]; q14-day schedule, first course): 21%
- Dyspepsia: No. of Patients (All Grades) ([2]; q14-day schedule, first course): 6
- Fatigue: % (All Grades) ([2]; q14-day schedule, first course): 54%
- Fatigue: Grade 3 ([2]; q14-day schedule, first course): 1
- Fatigue: No. of Patients (All Grades) ([2]; q14-day schedule, first course): 15
- Fever: % (All Grades) ([2]; q14-day schedule, first course): 4%
- Fever: Grade 3 ([2]; q14-day schedule, first course): 0
- Fever: No. of Patients (All Grades) ([2]; q14-day schedule, first course): 1
- Flatulence: % (All Grades) ([2]; q14-day schedule, first course): 11%
- Flatulence: No. of Patients (All Grades) ([2]; q14-day schedule, first course): 3
- GI other: % (All Grades) ([2]; q14-day schedule, first course): 7%
- GI other: No. of Patients (All Grades) ([2]; q14-day schedule, first course): 2
- Headache: % (All Grades) ([2]; q14-day schedule, first course): 50%
- Headache: Grade 3 ([2]; q14-day schedule, first course): 0
- Headache: No. of Patients (All Grades) ([2]; q14-day schedule, first course): 14
- Hyperglycemia: % (All Grades) ([2]; q14-day schedule, first course): 11%
- Hyperglycemia: No. of Patients (All Grades) ([2]; q14-day schedule, first course): 3
- Hypermagnesemia: % (All Grades) ([2]; q14-day schedule, first course): 7%
- Lymphopenia: % (All Grades) ([2]; q14-day schedule, first course): 18%
- Lymphopenia: No. of Patients (All Grades) ([2]; q14-day schedule, first course): 5
- Middle ear infection: % (All Grades) ([2]; q14-day schedule, first course): 4%
- Middle ear infection: Grade 3 ([2]; q14-day schedule, first course): 0
- Middle ear infection: No. of Patients (All Grades) ([2]; q14-day schedule, first course): 1
- Muscle weakness: % (All Grades) ([2]; q14-day schedule, first course): 4%
- Muscle weakness: Grade 3 ([2]; q14-day schedule, first course): 0
- Muscle weakness: No. of Patients (All Grades) ([2]; q14-day schedule, first course): 1
- Myalgia: % (All Grades) ([2]; q14-day schedule, first course): 4%
- Neutropenia: % (All Grades) ([2]; q14-day schedule, first course): 25%
- Neutropenia: No. of Patients (All Grades) ([2]; q14-day schedule, first course): 7
- Pain other: % (All Grades) ([2]; q14-day schedule, first course): 4%
- Pain other: No. of Patients (All Grades) ([2]; q14-day schedule, first course): 1
- Pleuretic pain: % (All Grades) ([2]; q14-day schedule, first course): 4%
- Pleuretic pain: No. of Patients (All Grades) ([2]; q14-day schedule, first course): 1
- Rhinitis: % (All Grades) ([2]; q14-day schedule, first course): 4%
- Rhinitis: No. of Patients (All Grades) ([2]; q14-day schedule, first course): 1
- Sinus Tachycardia: % (All Grades) ([2]; q14-day schedule, first course): 3%
- Thrombooytopenia: % (All Grades) ([2]; q14-day schedule, first course): 36%
- Thrombooytopenia: No. of Patients (All Grades) ([2]; q14-day schedule, first course): 10
- Tremors: % (All Grades) ([2]; q14-day schedule, first course): 4%
- Tremors: No. of Patients (All Grades) ([2]; q14-day schedule, first course): 1
- Urinary electrolyte wasting: % (All Grades) ([2]; q14-day schedule, first course): 11%
- Urinary electrolyte wasting: No. of Patients (All Grades) ([2]; q14-day schedule, first course): 3
- Vomiting: % (All Grades) ([2]; q14-day schedule, first course): 39%
- Vomiting: Grade 3 ([2]; q14-day schedule, first course): 4
- Vomiting: No. of Patients (All Grades) ([2]; q14-day schedule, first course): 11
